Test results published in patent US9040103B2, “Use of essential oil of oregano and of rosewood, or constituents thereof, in the therapeutic treatment of keratoses” (L'Oreal, priority 2010, dated 2015).

Test system: A431 cells
Test: Apoptosis, annexin V/propidium iodide (AV/PI) test
Type: cell-based, human
Conditions: 12 h; for death by targeted apoptosis of mutated cancer cells: A431 vs HEK001, linalool 320 nL/mL, carvacrol 60 nL/mL, thymol 30 nL/mL; for cytotoxic efficacy compared with the complex essential oils: concentrations equal to those present in the essential oil treatments
Description: These three molecules were incubated for 12 h with non-mutated immortalized keratinocytes (HEK001) and mutated cancerous keratinocytes (A431). The percentage of cells in apoptosis was measured by the annexin V/propidium iodide test. The concentrations of the molecules used were equal to those present during the treatments with the essential oils. Example: the concentration of linalool used here represents the equivalent of 80% of linalool present in the essential oil of rosewood.
Annexin V/Propidium Iodide Test:
One of the markers for apoptosis is the translocation of phosphatidyl-serine from the internal face towards the external face of the plasma membrane (translocation, allowing apoptotic bodies to be recognized and phagocyted by the macrophages).
The AV/PI test can be used to detect this event because of the affinity of the protein annexin V for phosphatidyl-serine. Propidium iodide, which targets DNA, can be used to distinguish early apoptotic cells from cells in late apoptosis and/or in necrosis.
After the desired treatment time, the medium was eliminated, the cells were harvested (by trypsinization), centrifuged and rinsed in 4 mL of PBS 1×. Tagging was carried out following the instructions of the manufacturer (Kit Vybrant, Molecular Probe). The cells were rapidly taken up in 100 μl of tagging buffer, to which 6 μl of annexin V and 3 μg/mL of propidium iodide per sample was added. The cells were then incubated for 30 min in the dark (at ambient temperature). Four hundred μL of tagging buffer was added before measuring the fluorescence of the annexin V (at 530 nm) and of the propidium iodide (at 610 nm).

In the case of `Cc1ccc(C(C)C)c(O)c1` [thymol], the “apoptotic A431 cells” value (30 nL/mL) is reported as “approximately 15%”, the “death by targeted apoptosis of mutated cancer cells” value (from here on “death by targeted apoptosis”) is reported as “qualitatively conserved” and the “cytotoxic efficacy compared with the complex essential oils” value is reported as “lower than with complex essential oils”.
With `C=CC(C)(O)CCC=C(C)C` (centres unmarked) [linalool] the “death by targeted apoptosis” value was “qualitatively conserved” and the “cytotoxic efficacy compared with the complex essential oils” value was “lower than with complex essential oils”.
With `Cc1ccc(C(C)C)cc1O` [carvacrol] the “apoptotic A431 cells” value (60 nL/mL) was about 25%, the “death by targeted apoptosis” value was “qualitatively conserved” and the “cytotoxic efficacy compared with the complex essential oils” value was “lower than with complex essential oils”.
